Data published in paper PMC3724985, “Isolation, biochemical characterization, and cloning of a bacteriocin from the poultry-associated Staphylococcus aureus strain CH-91” (Applied Microbiology and Biotechnology, 2012).
Values after ≈ are worked out from the molar mass of the structure shown. “Also recorded” adds a separate entry of the source.

Assays:
[1] = tested on: Micrococcus luteus CBM; experiment: MIC, micro-dilution method; format: cell-based; details: M. luteus CBM, CLSI M7-A7, cation-adjusted MHB
Source text: (§1) S. aureus CH-91 was kindly provided by S. Takeuchi from Fukui Prefectural University, Japan (Takeuchi et al. [1999]). The strain has been deposited in the DSMZ collection under the number DSM 26258. Bacillus licheniformis NCTC 7224, Bacillus subtilis ATCC 6633, Lactococcus lactis subsp. lactis LOCK 0869, Micrococcus luteus strains DSMZ 20030 and CBM (clinical isolate), Sarcina lutea ATCC 9341, S. aureus strains ATCC 25923, M-122 (Polakowska et al. [2012]), Newman and RN4220, S. epidermidis ATCC 35347, Staphylococcus intermedius ATCC 29666, Staphylococcus pseudintermedius LMG 22219 (Devriese et al. [2005]), Staphylococcus saprophyticus ATCC 49453, Staphylococcus xylosus strains isolated from the skin of healthy chickens, Streptococcus mutans ATCC 25175, Streptococcus pneumoniae ATCC 49619, Escherichia coli K12 ATCC 10798, Klebsiella pneumoniae, Serratia marcescens, and Sphingomonas sp. AMC 3962 (Dziga et al. [2012]) were obtained from the collections of The Faculty of Biochemistry, Biophysics and Biotechnology, Jagiellonian University, Krakow, Poland. […]
(§2) The bactericidal activity of BacCH91 was determined using the micro-dilution method in compliance with Clinical and Laboratory Standards Institute guidelines M7-A7 (CLSI [2006]). […] After overnight incubation at 37 °C, the optical density (OD) at 600 nm was measured. […]

[2] = tested on: Micrococcus luteus DSMZ 20030; experiment: MIC, micro-dilution method; format: cell-based; details: M. luteus DSMZ 20030, as printed in the text, CLSI M7-A7, cation-adjusted MHB
Source text: as §1, §2

[3] = tested on: Staphylococcus intermedius ATCC 29663; format: cell-based
[4] = tested on: Gram-negative strains; experiment: MIC, micro-dilution method, Gram-negative strains as a group; format: cell-based; details: highest (maximal) concentration tested 100 μM, CLSI M7-A7, cation-adjusted MHB
Source text: as §1, §2

[5] = tested on: Bacillus licheniformis NCTC 7224; format: cell-based
Source text: (§3) S. aureus CH-91 was kindly provided by S. Takeuchi from Fukui Prefectural University, Japan (Takeuchi et al. [1999]). The strain has been deposited in the DSMZ collection under the number DSM 26258. Bacillus licheniformis NCTC 7224, Bacillus subtilis ATCC 6633, Lactococcus lactis subsp. lactis LOCK 0869, Micrococcus luteus strains DSMZ 20030 and CBM (clinical isolate), Sarcina lutea ATCC 9341, S. aureus strains ATCC 25923, M-122 (Polakowska et al. [2012]), Newman and RN4220, S. epidermidis ATCC 35347, Staphylococcus intermedius ATCC 29666, Staphylococcus pseudintermedius LMG 22219 (Devriese et al. [2005]), Staphylococcus saprophyticus ATCC 49453, Staphylococcus xylosus strains isolated from the skin of healthy chickens, Streptococcus mutans ATCC 25175, Streptococcus pneumoniae ATCC 49619, Escherichia coli K12 ATCC 10798, Klebsiella pneumoniae, Serratia marcescens, and Sphingomonas sp. AMC 3962 (Dziga et al. [2012]) were obtained from the collections of The Faculty of Biochemistry, Biophysics and Biotechnology, Jagiellonian University, Krakow, Poland. A list of strains used for assessment of the general occurrence of the bacteriocin gene is provided in the Electronic supplementary materials (ESM; Table S1). Gram-positive and Gram-negative bacteria were maintained at 37 °C in tryptic soy broth (TSB) and Luria-Bertani broth (both obtained from Sigma), respectively.
(§4) The bactericidal activity of BacCH91 was determined using the micro-dilution method in compliance with Clinical and Laboratory Standards Institute guidelines M7-A7 (CLSI [2006]). Briefly, the bacteria were either cultivated in cation-adjusted MHB to the early exponential phase or grown overnight on agar-solidified MHB supplemented with 2.5 % LHB in the case of Streptococcus spp. and L. lactis. Subsequently, the bacteria were diluted to 1 × 10^6 CFU/ml either in MHB or in MHB supplemented with 5 % LHB, in the case of the latter bacteria. Fifty-microliter portions of bacterial suspension were mixed with an equal volume of MHB containing serial twofold dilutions of bacteriocin. After overnight incubation at 37 °C, the optical density (OD) at 600 nm was measured. The MIC was defined as the minimum bacteriocin concentration for which the increase in OD was not observed compared to uninoculated broth.

[6] = tested on: Bacillus subtilis ATCC 6633; format: cell-based
Source text: as §3, §4

[7] = tested on: Escherichia coli K12 ATCC 10798; format: cell-based
Source text: as §3, §4

[8] = tested on: Klebsiella pneumoniae; format: cell-based
Source text: as §3, §4

[9] = tested on: Sarcina lutea ATCC 9341; format: cell-based
Source text: as §3, §4

[10] = tested on: Serratia marcescens; format: cell-based
Source text: as §3, §4

[11] = tested on: Sphingomonas sp. AMC 3962; format: cell-based
Source text: as §3, §4

[12] = tested on: Staphylococcus aureus ATCC 25923; format: cell-based
Source text: as §3, §4

[13] = tested on: Staphylococcus aureus CH91; format: cell-based
Source text: as §3, §4

[14] = tested on: Staphylococcus aureus M-122; format: cell-based
Source text: as §3, §4

[15] = tested on: Staphylococcus aureus Newman; format: cell-based
Source text: as §3, §4

[16] = tested on: Staphylococcus aureus RN4220; format: cell-based; details: Staphylococcus aureus RN4220, bacteriocin gene positive strain; micro-dilution, CLSI M7-A7, cation-adjusted MHB, overnight 37 °C, OD 600 nm
Source text: as §3, §4

[17] = tested on: Staphylococcus epidermidis ATCC 35347; format: cell-based
Source text: as §3, §4

[18] = tested on: Staphylococcus pseudintermedius LMG 22219; format: cell-based
Source text: as §3, §4

[19] = tested on: Staphylococcus saprophiticus ATCC 49453; format: cell-based
Source text: as §3, §4

[20] = tested on: Staphylococcus xylosus kw 2,5; format: cell-based
Source text: as §3, §4

[21] = tested on: Streptococcus mutans ATCC 25175; format: cell-based
Source text: as §3, §4

[22] = tested on: Streptococcus pneumoniae ATCC 49619; format: cell-based
Source text: as §3, §4

[23] = tested on: various S. aureus strains; format: cell-based
Source text: as §3, §4

[24] = target: T1, proteinase K (Parengyodontium album, UniProt P06873); experiment: Susceptibility to proteolysis, proteinase K; format: in vitro ADME; details: 30 μM, enzyme/bacteriocin 1:20 by weight, 1 h at 37 °C; radial diffusion assay and HPLC
T1 construct: purchased A&A Biotechnology
T1 sequence (P06873 106-384): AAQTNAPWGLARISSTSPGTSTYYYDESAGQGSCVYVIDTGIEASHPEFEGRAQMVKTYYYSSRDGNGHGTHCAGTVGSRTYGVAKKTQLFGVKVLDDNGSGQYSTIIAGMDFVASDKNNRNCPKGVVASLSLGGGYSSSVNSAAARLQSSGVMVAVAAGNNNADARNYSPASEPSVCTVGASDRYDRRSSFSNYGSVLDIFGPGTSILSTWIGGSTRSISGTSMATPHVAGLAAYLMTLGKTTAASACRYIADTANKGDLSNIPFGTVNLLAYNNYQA
Experimental: All of the above experiments were performed in triplicate. The final results are presented as means ± SD.

SMILES: C/C=C(\NC(=O)[C@H](CCCCN)NC(=O)CNC(=O)[C@@H]1CS[C@@H](C)[C@@H](NC(=O)[C@@H]2CSC[C@@H](NC(=O)/C(=C/C)NC(=O)[C@@H](N)[C@@H](C)CC)C(=O)N[C@@H](Cc3ccccc3)C(=O)N[C@@H]([C@@H](C)CC)C(=O)NCC(=O)N2)C(=O)N2CCC[C@H]2C(=O)NCC(=O)N1)C(=O)NCC(=O)N[C@@H]1CSC[C@@H]2NC(=O)[C@H](Cc3ccccc3)NC(=O)[C@@H](CS/C=C\NC2=O)NC(=O)[C@H](CC(N)=O)NC(=O)[C@H](Cc2ccccc2)NC1=O [BacCH91]
- MIC [1]: 0.04 µM (≈ 0.0831 µg/mL)
- MIC [2]: 0.0025 µM (≈ 0.00519 µg/mL)
- MIC [3]: 1.6 µM (≈ 3.32 µg/mL)
- susceptibility of Gram-negative strains to BacCH91 [4]: ineffective; also recorded: None of the Gram-negative species assayed were susceptible
- MIC [5]: 1.8 µM (≈ 3.74 µg/mL)
- MIC [6]: 2.6 µM (≈ 5.4 µg/mL)
- MIC [7]: >100 µM
- MIC [8]: >100 µM
- MIC [9]: 0.31 µM (≈ 0.644 µg/mL)
- MIC [10]: >100 µM
- MIC [11]: >100 µM
- MIC [12]: 6.0 µM (≈ 12.5 µg/mL)
- MIC [13]: 1.3 µM (≈ 2.7 µg/mL)
- MIC [14]: 4.0 µM (≈ 8.31 µg/mL)
- MIC [15]: 6.0 µM (≈ 12.5 µg/mL)
- MIC [16]: 6.0 µM (≈ 12.5 µg/mL)
- MIC [17]: 1.6 µM (≈ 3.32 µg/mL)
- MIC [18]: 1.5 µM (≈ 3.11 µg/mL)
- MIC [19]: 3.0 µM (≈ 6.23 µg/mL)
- MIC [20]: 1.5 to 2.0 µM
- MIC [21]: 2.0 µM (≈ 4.15 µg/mL)
- MIC [22]: 1.6 µM (≈ 3.32 µg/mL)
- MIC [23]: 6.0 µM (≈ 12.5 µg/mL)
- effect of proteinase K on BacCH91 [24]: unaffected
